# Test results as given in patent publication US9926581B2, “Fagopyritol synthase genes and uses thereof” (Cornell Research Foundation, Inc., priority 2002, dated 2018).
# Entries after “also recorded” stand apart in the source; their conditions may differ.
# Assays:
# Conditions in all cases: for activity as galactosyl acceptor: UDP-Gal as galactosyl donor, 20 mM substrates, 5 mM MnCl2, 30° C.
# GmGolS = experiment: Galactinol synthase / fagopyritol synthase enzyme assay with recombinant GmGolS; assay type: biochemical, Glycine max
# Procedure: (§1) Both the crude soluble protein extracts from E. coli and the purified GolS recombinant proteins were used in enzyme assays. […] In galactinol synthase assays, UDP-Gal was substituted with 20 mM galactinol as the galactosyl donor. Assays were run at 30° C. for 30 to 300 minutes. Reactions were stopped by addition of 50 μL of 100% ethanol.
# Both crude soluble protein extracts from E. coli containing the recombinant GmGolS protein and purified recombinant GmGolS protein were used in enzyme assays. […] Assays were run at 30° C. for 30 to 300 minutes. Reactions were stopped by addition of 50 μL of 100% ethanol.
# (§2) The reactions were stopped after 3 hours with the addition of 50 μL of 100% EtOH.
# (§3) To determine the concentration of Mn^2+ in which the enzymes had the greatest activity, multiple assays were completed varying the amount of Mn^2+. […] After 3 hours, the reactions were stopped with the addition of 50 μL of 100% EtOH.
# (§4) The reactions were completed using 1-2 μg of enzyme in a 50 μL solution containing 20 mM galactosyl acceptor, 20 mM UDP-galactose, 50 mM HEPES, pH 7.0, 2 mM DTT, 5 mM Mn^2+ at 30° C. After 3 hours, the reactions were stopped with the addition of 50 of 100% EtOH.
# (§5) All samples from the assays were analyzed by gas chromatography. All were prepared for analysis in the same way. […] The solution was then filtered using NanoSep tubes and 100 μL was transferred to a silation vial. The samples were then dried under nitrogen and desiccated over P2O5 overnight. The dried samples were then derivitized with 100 μL of TMSI:pyridine (1:1, v/v) and then analyzed by gas chromatography.
# FeGolS-1 = experiment: Fagopyritol synthase / galactinol synthase enzyme assay with recombinant FeGolS-1 (products by gas chromatography); assay type: biochemical, Fagopyrum esculentum
# Procedure: Both the crude soluble protein extracts from E. coli and the purified GolS recombinant proteins were used in enzyme assays. […] In galactinol synthase assays, UDP-Gal was substituted with 20 mM galactinol as the galactosyl donor. Assays were run at 30° C. for 30 to 300 minutes. Reactions were stopped by addition of 50 μL of 100% ethanol. […] The reactions were stopped after 3 hours with the addition of 50 μL of 100% EtOH. […] To determine the concentration of Mn^2+ in which the enzymes had the greatest activity, multiple assays were completed varying the amount of Mn^2+. […] After 3 hours, the reactions were stopped with the addition of 50 μL of 100% EtOH. […] After 3 hours, the reactions were stopped with the addition of 50 of 100% EtOH. All samples from the assays were analyzed by gas chromatography. All were prepared for analysis in the same way. […] The solution was then filtered using NanoSep tubes and 100 μL was transferred to a silation vial. The samples were then dried under nitrogen and desiccated over P2O5 overnight. The dried samples were then derivitized with 100 μL of TMSI:pyridine (1:1, v/v) and then analyzed by gas chromatography.
# FeGolS-2 = FeGolS-2 (Fagopyrum esculentum, UniProt Q7XZ07); experiment: Fagopyritol synthase / galactinol synthase enzyme assay with recombinant FeGolS-2 (products by gas chromatography); assay type: biochemical
# Procedure: as §1, §2, §3, §4, §5
# [1] = 20 mM galactosyl donor instead of UDP-Gal
# FeGolS-2, sequence (Q7XZ07 entry or part of it): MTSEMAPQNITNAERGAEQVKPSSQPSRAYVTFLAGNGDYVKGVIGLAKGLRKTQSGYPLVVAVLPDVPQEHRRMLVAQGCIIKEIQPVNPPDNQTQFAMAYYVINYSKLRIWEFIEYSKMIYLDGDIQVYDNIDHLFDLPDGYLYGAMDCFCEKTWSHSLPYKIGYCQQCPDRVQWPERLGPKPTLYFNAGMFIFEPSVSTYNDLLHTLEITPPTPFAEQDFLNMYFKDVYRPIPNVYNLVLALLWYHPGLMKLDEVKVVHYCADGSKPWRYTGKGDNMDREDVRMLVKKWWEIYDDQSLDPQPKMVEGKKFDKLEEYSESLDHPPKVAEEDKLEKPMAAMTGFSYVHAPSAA
SMILES,activity as galactosyl acceptor (GmGolS),activity as galactosyl acceptor (FeGolS-1),further results
OC1C(O)C(O)C(O)C(O)C1O [L-chiro-inositol],active; also recorded: can be used as galactosyl acceptors,can be used as galactosyl acceptors,–
O[C@H]1[C@H](O)[C@@H](O)[C@H](O)[C@@H](O)[C@@H]1O [scyllo-inositol],reduced activity; also recorded: can be used as galactosyl acceptors,can be used as galactosyl acceptors,activity as galactosyl acceptor (FeGolS-2): can be used as galactosyl acceptors
"O[C@H]1[C@H](O)[C@@H](O)[C@H](O)[C@@H](O)[C@H]1O [myo-Inositol, myo-inositol]",catalyzed the biosynthesis of galactinol; also recorded: can be used as galactosyl acceptors,catalyzed the biosynthesis of galactinol; also recorded: can be used as galactosyl acceptors,activity as galactosyl acceptor (FeGolS-2): catalyzed the biosynthesis of galactinol; also recorded: can be used as galactosyl acceptors
"OC1C(O)C(O)C(O)C(O)C1O [D-chiro-Inositol, D-chiro-inositol]",–,can be used as galactosyl acceptors,"activity as galactosyl acceptor (GmGolS; listed as D-chiro-inositol): catalyzed the biosynthesis of fagopyritol B1, but not fagopyritol A1; also recorded: catalyzed the biosynthesis of fagopyritol B1; also recorded: can be used as galactosyl acceptors; activity as galactosyl acceptor (FeGolS-1; listed as D-chiro-inositol): catalyzed the biosynthesis of fagopyritol B1"
"CO[C@H]1[C@H](O)[C@@H](O)[C@@H](O)[C@H](O)[C@@H]1O [D-Pinitol, 1D-3-O-methyl-chiro-inositol]",not active,–,–
"OC[C@H]1O[C@H](OC2[C@@H](O)[C@H](O)C(O)[C@H](O)[C@@H]2O)[C@H](O)[C@@H](O)[C@H]1O (some centres unmarked) [Galactinol, galactinol]",–,–,activity as galactosyl donor (GmGolS; galactosyl donor instead of UDP-Gal): not active; activity as galactosyl donor (FeGolS-2; [1]): Neither FeGolS-1 nor FeGolS-2 was active; activity as galactosyl donor (FeGolS-1; [1]): Neither FeGolS-1 nor FeGolS-2 was active

# Second part, led by results:
activity as galactosyl acceptor (GmGolS),activity as galactosyl acceptor (FeGolS-1),SMILES,further results
not active,–,"COC1[C@@H](O)[C@H](O)C(O)[C@H](O)[C@H]1O (some centres unmarked) [sequoyitol, 5-O-methyl-myo-inositol]",–
not active,–,"CO[C@H]1[C@H](O)[C@@H](O)[C@H](O)[C@H](O)[C@H]1O [L-quebrachitol, 1L-2-O-methyl-chiro-inositol]",–
not active,–,"COC1[C@@H](O)[C@@H](O)C(O)[C@H](O)[C@H]1O (stereo partly drawn) [D-ononitol, 1D-4-O-methyl-myo-inositol]",–
no activity,–,OC1C(O)C(O)C(O)C(O)C1O (stereo not drawn) [epi-inositol],–
reduced activity,can be used as galactosyl acceptors,"COC1[C@H](O)[C@H](O)C(O)[C@H](O)[C@H]1O (stereo partly drawn) [D-bornesitol, 1D-1-O-methyl-myo-inositol]",activity as galactosyl acceptor (GmGolS; listed as bornesitol): can be used as galactosyl acceptors; activity as galactosyl acceptor (FeGolS-2): can be used as galactosyl acceptors
